Source: patent US20090221559A1 (priority 2005, published 2009)
Read-outs that look alike come from different tables or passages of the source.

Key:
[1] = system: HCV replicon RNA replication in Huh-7 luc/neo (Huh-Luc) cells; assay: HCV replicon assay (stable replicon cell reporter assay, luciferase read-out); type: cell-based, HCV type 1b
Summary of the method: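 Huh-7 cells stably carry a bicistronic HCV 1b NS3-NS5B subgenomic replicon with firefly luciferase and neo markers. Cells were plated with compound across a concentration range and incubated three days. Replication was measured as luciferase activity to give dose-response curves.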

[2] = target: T1, HCV NS5B polymerase (His-tagged, C-terminal 21 amino acid deleted NS5B, HC-J4) (Hepatitis C virus genotype 1b, UniProt O92972); assay: NS5b polymerase assay (biochemical RdRp assay, 3H-GTP incorporation, SPA beads); parameters: species or system HCV genotype 1b; conditions: 3H-GTP incorporation, 2 h at 25° C.
T1 construct: The cDNA encoding NS5B amino acid 1-570 (HC-J4, genotype 1b); His tag (His6, from pET-21b) (C); made in house; host or cells: E. coli BL21 (DE3)
Summary of the method: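 His-tagged C-terminal-21-aa-deleted NS5B (genotype 1b, HC-J4) at 200 nM was preincubated 15 min at RT with compound on 5′-biotinylated oligo(rG13)/poly(rC) template/primer before NTPs. Reaction with 600 nM GTP plus 0.1 μCi 3H-GTP and 5 mM MgCl2 in Tris pH 7.5 ran 2 h at 25 °C. Stopped with EDTA/SPA beads for incorporation counting.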

[3] = Hepatitis C virus, Huh-7, 72 h, read-out: Replicon Assay EC50, Huh-Luc cells, three days incubation, luciferase activity
[4] = NS5B Polymerase Assay IC50, 200 nM enzyme

T1 sequence (O92972 2417-3000, looked up, stated change not applied): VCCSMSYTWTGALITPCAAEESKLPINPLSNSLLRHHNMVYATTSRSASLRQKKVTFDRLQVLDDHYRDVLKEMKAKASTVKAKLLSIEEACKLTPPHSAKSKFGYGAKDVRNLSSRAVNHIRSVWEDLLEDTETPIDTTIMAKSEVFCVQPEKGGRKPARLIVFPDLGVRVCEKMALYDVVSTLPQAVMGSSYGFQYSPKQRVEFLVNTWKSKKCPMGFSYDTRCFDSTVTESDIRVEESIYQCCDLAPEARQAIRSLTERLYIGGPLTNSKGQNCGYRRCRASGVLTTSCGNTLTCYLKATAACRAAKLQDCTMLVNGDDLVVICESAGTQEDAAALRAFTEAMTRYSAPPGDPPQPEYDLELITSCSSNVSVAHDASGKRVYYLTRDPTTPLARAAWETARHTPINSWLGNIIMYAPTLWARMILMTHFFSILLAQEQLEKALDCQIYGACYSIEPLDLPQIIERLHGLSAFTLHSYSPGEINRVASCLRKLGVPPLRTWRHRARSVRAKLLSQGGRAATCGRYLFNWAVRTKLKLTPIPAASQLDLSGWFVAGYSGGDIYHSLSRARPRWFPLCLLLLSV

CCCCC(=O)N1c2ccccc2NC2=C(C(=O)CC(C)(C)C2)C1c1ccc(OC)c(OC)c1 (stereo not shown) [compound 80]
EC50 [1, 3]: 9.53 µM | IC50 [2, 4]: > 33.3 µM

COc1ccccc1C1C2=C(CC(C)(C)CC2=O)Nc2ccccc2N1C(=O)Cc1ccccc1 (stereo not shown) [compound 81]
EC50 [1, 3]: 6.72 µM | IC50 [2, 4]: > 42.7 µM

COc1cccc(C2C3=C(CC(C)(C)CC3=O)Nc3ccccc3N2C(=O)Cc2ccccc2)c1 (stereo not shown) [compound 82]
EC50 [1, 3]: 6.8 µM | IC50 [2, 4]: > 42.7 µM

CCCCCC(=O)N1c2ccccc2NC2=C(C(=O)CC(C)(C)C2)C1c1ccc(OC(C)C)cc1 (stereo not shown) [compound 83]
EC50 [1, 3]: 4.16 µM | IC50 [2, 4]: > 42.7 µM

CCC(=O)N1c2ccccc2NC2=C(C(=O)CC(C)(C)C2)C1c1ccc(OC)c(OC)c1 (stereo not shown) [compound 84]
EC50 [1, 3]: 20.9 µM | IC50 [2, 4]: > 42.7 µM

CCOc1ccc(C2C3=C(CC(C)(C)CC3=O)Nc3ccccc3N2C(=O)Cc2ccc(Cl)cc2)cc1 (stereo not shown) [compound 85]
EC50 [1, 3]: 21.4 µM | IC50 [2, 4]: > 42.7 µM

CCOc1ccc(C2C3=C(CC(C)(C)CC3=O)Nc3ccccc3N2C(=O)Cc2ccccc2)cc1 (stereo not shown) [compound 86]
EC50 [1, 3]: 9.69 µM | IC50 [2, 4]: > 42.7 µM

CC1(C)CC(=O)C2=C(C1)Nc1ccccc1N(C(=O)C(F)(F)F)C2c1ccccc1Cl (stereo not shown) [compound 87]
EC50 [1, 3]: > 32 µM | IC50 [2, 4]: > 42.7 µM

CC1(C)CC(=O)C2=C(C1)Nc1ccccc1N(C(=O)c1ccccc1)C2c1ccc(Cl)cc1 (stereo not shown) [compound 88]
EC50 [1, 3]: 6.1 µM | IC50 [2, 4]: 18.5 µM

CC1(C)CC(=O)C2=C(C1)Nc1ccccc1N(C(=O)C(F)(F)F)C2c1ccc([N+](=O)[O-])cc1 (stereo not shown) [compound 89]
EC50 [1, 3]: 5.32 µM | IC50 [2, 4]: > 42.7 µM

CCCCOc1ccc(C2C3=C(CC(C)(C)CC3=O)Nc3ccccc3N2C(=O)c2ccccc2)cc1 (stereo not shown) [compound 91]
EC50 [1, 3]: 8.14 µM | IC50 [2, 4]: > 42.7 µM

CC1(C)CC(=O)C2=C(C1)Nc1ccccc1N(C(=O)c1ccccc1)C2c1ccccc1 (stereo not shown) [compound 92]
EC50 [1, 3]: 17.6 µM | IC50 [2, 4]: > 42.7 µM

CCCCCC(=O)N1c2ccccc2NC2=C(C(=O)CC(C)(C)C2)C1c1ccccc1OC(C)CC (stereo not shown) [compound 93]
EC50 [1, 3]: 4.05 µM | IC50 [2, 4]: > 42.7 µM

CC1(C)CC(=O)C2=C(C1)Nc1ccccc1N(C(=O)c1ccccc1)C2c1ccccc1F (stereo not shown) [compound 94]
EC50 [1, 3]: 3.4 µM | IC50 [2, 4]: > 42.7 µM

COc1ccc(OC)c(C2C3=C(CC(C)(C)CC3=O)Nc3ccccc3N2C(=O)C(F)(F)F)c1Br (stereo not shown) [compound 96]
EC50 [1, 3]: 11.4 µM | IC50 [2, 4]: > 42.7 µM

CCCCC(CC)C(=O)N1c2ccccc2NC2=C(C(=O)CC(C)(C)C2)C1c1ccc(OCCC)c(OC)c1 (stereo not shown) [compound 98]
EC50 [1, 3]: 7.33 µM | IC50 [2, 4]: > 42.7 µM

CC(C)C(=O)N1c2ccccc2NC2=C(C(=O)CC(C)(C)C2)C1c1ccc(OCc2ccccc2)cc1 (stereo not shown) [compound 99]
EC50 [1, 3]: 3.69 µM | IC50 [2, 4]: > 42.7 µM

CC(C)Oc1ccc(C2C3=C(CC(C)(C)CC3=O)Nc3ccccc3N2C(=O)C(F)(F)F)cc1 (stereo not shown) [compound 100]
EC50 [1, 3]: 3.6 µM | IC50 [2, 4]: > 42.7 µM

CCCCCOc1ccc(C2C3=C(CC(C)(C)CC3=O)Nc3ccccc3N2C(C)=O)cc1 (stereo not shown) [compound 102]
EC50 [1, 3]: > 32 µM | IC50 [2, 4]: > 42.7 µM

CC(=O)N1c2ccccc2NC2=C(C(=O)CC(C)(C)C2)C1c1cccc([N+](=O)[O-])c1 (stereo not shown) [compound 103]
EC50 [1, 3]: > 32 µM | IC50 [2, 4]: > 42.7 µM

CC(=O)N1c2ccccc2NC2=C(C(=O)CC(C)(C)C2)C1c1cccc(F)c1 (stereo not shown) [compound 104]
EC50 [1, 3]: > 32 µM | IC50 [2, 4]: > 42.7 µM

COc1cccc(C2C3=C(CC(C)(C)CC3=O)Nc3ccccc3N2C(C)=O)c1 (stereo not shown) [compound 105]
EC50 [1, 3]: > 32 µM | IC50 [2, 4]: > 42.7 µM

COc1ccc(C2C3=C(CC(C)(C)CC3=O)Nc3ccccc3N2C(=O)C(F)(F)F)cc1OC (stereo not shown) [compound 106]
EC50 [1, 3]: > 32 µM | IC50 [2, 4]: > 42.7 µM

CN(C)c1ccc(C2C3=C(CC(C)(C)CC3=O)Nc3ccccc3N2C(=O)C(F)(F)F)cc1 (stereo not shown) [compound 108]
EC50 [1, 3]: > 32 µM | IC50 [2, 4]: > 42.7 µM

CCN(CC)c1ccc(C2C3=C(CC(C)(C)CC3=O)Nc3ccccc3N2C(=O)C(F)(F)F)cc1 (stereo not shown) [compound 109]
EC50 [1, 3]: > 32 µM | IC50 [2, 4]: > 42.7 µM

COc1ccc(C2C3=C(CC(C)(C)CC3=O)Nc3ccccc3N2C(=O)C(F)(F)F)cc1 (stereo not shown) [compound 110]
EC50 [1, 3]: 8.11 µM | IC50 [2, 4]: > 42.7 µM

CC(=O)N1c2ccccc2NC2=C(C(=O)CC(C)(C)C2)C1c1ccc(Cl)cc1 (stereo not shown) [compound 111]
EC50 [1, 3]: > 32 µM | IC50 [2, 4]: > 42.7 µM

CC(=O)N1c2ccccc2NC2=C(C(=O)CC(C)(C)C2)C1c1ccccc1Cl (stereo not shown) [compound 112]
EC50 [1, 3]: > 32 µM | IC50 [2, 4]: > 42.7 µM

CC1(C)CC(=O)C2=C(C1)Nc1ccccc1N(C(=O)c1ccc(F)cc1)C2c1ccc(Br)cc1 (stereo not shown) [compound 113]
EC50 [1, 3]: > 32 µM | IC50 [2, 4]: > 42.7 µM

CC(=O)N1c2ccccc2NC2=C(C(=O)CC(C)(C)C2)C1c1ccc(OC(C)C)cc1 (stereo not shown) [compound 114]
EC50 [1, 3]: > 32 µM | IC50 [2, 4]: > 42.7 µM

CCCCOc1ccc(C2C3=C(CC(C)(C)CC3=O)Nc3ccccc3N2C(=O)C(F)(F)F)cc1 (stereo not shown) [compound 115]
EC50 [1, 3]: 14.4 µM | IC50 [2, 4]: > 42.7 µM

COc1c(Cl)cc(Cl)cc1C1C2=C(CC(C)(C)CC2=O)Nc2ccccc2N1C(=O)C(F)(F)F (stereo not shown) [compound 116]
EC50 [1, 3]: > 32 µM | IC50 [2, 4]: > 42.7 µM

CC(=O)N1c2ccccc2NC2=C(C(=O)CC(C)(C)C2)C1c1cccc(O)c1 (stereo not shown) [compound 117]
EC50 [1, 3]: > 32 µM | IC50 [2, 4]: > 42.7 µM

COc1ccc(OC)c(C2C3=C(CC(C)(C)CC3=O)Nc3ccccc3N2C(C)=O)c1 (stereo not shown) [compound 118]
EC50 [1, 3]: > 32 µM | IC50 [2, 4]: > 42.7 µM

COc1ccc(C2C3=C(CC(C)(C)CC3=O)Nc3ccccc3N2C(C)=O)cc1OC (stereo not shown) [compound 119]
EC50 [1, 3]: > 32 µM | IC50 [2, 4]: > 42.7 µM

CCOc1cc(C2C3=C(CC(C)(C)CC3=O)Nc3ccccc3N2C(C)=O)ccc1O (stereo not shown) [compound 121]
EC50 [1, 3]: > 32 µM | IC50 [2, 4]: > 42.7 µM

CC(=O)N1c2ccccc2NC2=C(C(=O)CC(C)(C)C2)C1c1ccc(N(C)C)cc1 (stereo not shown) [compound 122]
EC50 [1, 3]: > 32 µM | IC50 [2, 4]: > 42.7 µM

CCCOc1cccc(C2C3=C(CC(C)(C)CC3=O)Nc3ccccc3N2C(C)=O)c1 (stereo not shown) [compound 123]
EC50 [1, 3]: > 32 µM | IC50 [2, 4]: > 42.7 µM

COc1cc(C2C3=C(CC(C)(C)CC3=O)Nc3ccccc3N2C(C)=O)ccc1OCc1ccccc1 (stereo not shown) [compound 124]
EC50 ([1]; Huh-Luc cells, three days incubation, luciferase activity, read-out: Replicon Assay EC50): 28.9 µM | IC50 ([2]; 200 nM enzyme, read-out: NS5B Polymerase Assay IC50): 8.56 µM

CCOc1ccccc1C1C2=C(CC(C)(C)CC2=O)Nc2ccccc2N1C(C)=O (stereo not shown) [compound 125]
EC50 [1, 3]: > 32 µM | IC50 [2, 4]: > 42.7 µM

CC(=O)N1c2ccccc2NC2=C(C(=O)CC(C)(C)C2)C1c1cccc(Cl)c1 (stereo not shown) [compound 126]
EC50 [1, 3]: > 32 µM | IC50 [2, 4]: > 42.7 µM

CCCCOc1ccc(C2C3=C(CC(C)(C)CC3=O)Nc3ccccc3N2C(C)=O)cc1 (stereo not shown) [compound 127]
EC50 [1, 3]: 11.5 µM | IC50 [2, 4]: > 42.7 µM

COc1ccccc1C1C2=C(CC(C)(C)CC2=O)Nc2ccccc2N1C(C)=O (stereo not shown) [compound 128]
EC50 [1, 3]: > 32 µM | IC50 [2, 4]: > 42.7 µM

CCCOc1ccc(C2C3=C(CC(C)(C)CC3=O)Nc3ccccc3N2C(C)=O)cc1OC (stereo not shown) [compound 129]
EC50 [1, 3]: > 32 µM | IC50 [2, 4]: > 42.7 µM

CCCOc1ccccc1C1C2=C(CC(C)(C)CC2=O)Nc2ccccc2N1C(C)=O (stereo not shown) [compound 130]
EC50 [1, 3]: > 32 µM | IC50 [2, 4]: > 42.7 µM

CCN(CC)c1ccc(C2C3=C(CC(C)(C)CC3=O)Nc3ccccc3N2C(C)=O)cc1 (stereo not shown) [compound 131]
EC50 [1, 3]: > 32 µM | IC50 [2, 4]: > 42.7 µM

COc1ccc(C2C3=C(CC(C)(C)CC3=O)Nc3ccccc3N2C(C)=O)c(OC)c1 (stereo not shown) [compound 132]
EC50 [1, 3]: 12.8 µM | IC50 [2, 4]: > 42.7 µM
